According to US6525001B1, “Substituted pyrimidine and pyridine herbicides” (Mid-American Commercialization Corporation, priority 1997, dated 2003):

Columns and labels:
Test in all cases: Test D
Format in all cases: in vivo
[1] = tested on: field violet (Viola arvensis); details: PREEMERGENCE
[2] = tested on: lambsquarters (Chenopodium album); details: PREEMERGENCE
[3] = tested on: spring wheat (Triticum aestivum); set-up: key to Plant response rating, Spring Wheat: 0 is no effect; details: PREEMERGENCE
[4] = tested on: deadnettle (Lamium amplexicaule); details: PREEMERGENCE
[5] = tested on: blackgrass (Alopecurus myosuroides); details: POSTEMERGENCE
Protocol: (§1) Compounds evaluated in this test were formulated in a non-phytotoxic solvent mixture which included a surfactant and applied to plants that were in the 1- to 4-leaf stage (postemergence application). A mixture of sandy loam soil and greenhouse potting mix in a 60:40 ratio was used for the postemergence test.
(§2) Plantings of these crops and weed species were adjusted to produce plants of appropriate size for the postemergence test. All plant species were grown using normal greenhouse practices. Crop and weed species include alfalfa (Medicago sativa), annual bluegrass (Poa annua), blackgrass (Alopecurus myosuroides), black nightshade (Solanum nigra), chickweed (Stellaria media), common poppy (Papaver rhoeas), deadnettle (Lamium amplexicaule), downy brome (Bromus tectorum), field violet (Viola arvensis), galium 2 (Galium aparine), green foxtail (Setaria viridis), Italian ryegrass (Lolium multiflorum), jointed goatgrass (Aegilops cylindrica), kochia (Kochia scoparia), lambsquarters (Chenopodium album), lentil (Lens culinaris), littleseed canarygrass (Phalaris minor), pea (Pisum sativum), potato (Solanum tuberosum), rape (Brassica napus), redroot pigweed (Amaranthus retroflexus), Russian thistle (Salsola kali), scentless chamomile (Matricaria inodora), sorghum (Sorghum vulgare), spring barley (Hordeum vulgare), sugar beet (Beta vulgaris), sunflower (Helianthus annuus), ivyleaf speedwell (Veronica hederaefolia), spring wheat (Triticum aestivum), winter wheat (Triticum aestivum), wild buckwheat (Polygonum convolvulus), wild mustard (Sinapis arvensis), wild oat (Avena fatua), windgrass (Apera spica-venti) and winter barley (Hordeum vulgare).
(§3) Treated plants and untreated controls were maintained in a greenhouse for approximately 21 to 28 days, after which all treated plants were compared to untreated controls and visually evaluated. Plant response ratings, summarized in Table D, are based upon a 0 to 100 scale where 0 is no effect and 100 is complete control. A dash response (−) means no test result.

[6] = tested on: Italian ryegrass (Lolium multiflorum); details: POSTEMERGENCE
Protocol: as §1, §2, §3

[7] = tested on: winter barley (Hordeum vulgare); details: POSTEMERGENCE
Protocol: as §1, §2, §3

[8] = tested on: downy brome (Bromus tectorum); details: POSTEMERGENCE
Protocol: as §1, §2, §3

[9] = tested on: spring barley (Hordeum vulgare); details: POSTEMERGENCE
Protocol: as §1, §2, §3

[10] = tested on: spring wheat (Triticum aestivum); details: POSTEMERGENCE
Protocol: as §1, §2, §3

[11] = tested on: green foxtail (Setaria viridis); details: POSTEMERGENCE
Protocol: as §1, §2, §3

[12] = tested on: annual bluegrass (Poa annua); details: POSTEMERGENCE
Protocol: as §1, §2, §3

[13] = tested on: scentless chamomile (Matricaria inodora); details: POSTEMERGENCE
Protocol: as §1, §2, §3

[14] = tested on: winter wheat (Triticum aestivum); details: POSTEMERGENCE
Protocol: as §1, §2, §3

[15] = tested on: jointed goatgrass (Aegilops cylindrica); details: POSTEMERGENCE
Protocol: as §1, §2, §3

[16] = tested on: littleseed canarygrass (Phalaris minor); details: POSTEMERGENCE
Protocol: as §1, §2, §3

[17] = tested on: sunflower (Helianthus annuus); details: POSTEMERGENCE
Protocol: as §1, §2, §3

[18] = tested on: windgrass (Apera spica-venti); details: POSTEMERGENCE
Protocol: as §1, §2, §3

wild oat (Avena fatua) [19] = details: POSTEMERGENCE
Protocol: as §1, §2, §3

wild oat (Avena fatua) [20] = details: PREEMERGENCE
[21] = tested on: sunflower (Helianthus annuus); details: PREEMERGENCE
[22] = tested on: common poppy (Papaver rhoeas); set-up: key: 0 is no effect; 100 is complete control; details: PREEMERGENCE
[23] = tested on: windgrass (Apera spica-venti); set-up: key: 0 is no effect; 100 is complete control; details: PREEMERGENCE

## Cc1cnc(-c2ccc(C(F)(F)F)cc2)nc1Cc1cccc(C(F)(F)F)c1 [Example 1, 5-methyl-2-[4-(trifluoromethyl)phenyl]-4-[[3-(trifluoromethyl)phenyl]methyl]pyrimidine]
[1]; Rate 31 g/ha
  Plant response rating, Field violet: 20
[1]; Rate 62 g/ha
  Plant response rating, Field violet: 70
[1]; Rate 125 g/ha
  Plant response rating, Field violet: 85
[1]; Rate 250 g/ha
  Plant response rating, Field violet: 85
[2]; Rate 31 g/ha
  Plant response rating, Lambsquarters: 10
[2]; Rate 62 g/ha
  Plant response rating, Lambsquarters: 70
[2]; Rate 125 g/ha
  Plant response rating, Lambsquarters: 70
[2]; Rate 250 g/ha
  Plant response rating, Lambsquarters: 70
[3]; Rate 31 g/ha
  Plant response rating, Spring Wheat: 0
  Plant response rating, Wheat (spring): 10
[3]; Rate 62 g/ha
  Plant response rating, Spring Wheat: 0
  Plant response rating, Wheat (spring): 10
[3]; Rate 125 g/ha
  Plant response rating, Spring Wheat: 0
  Plant response rating, Wheat (spring): 50
[3]; Rate 250 g/ha
  Plant response rating, Wheat (spring): 30
[4]; Rate 31 g/ha
  Plant response rating, Deadnettle: 60
[4]; Rate 62 g/ha
  Plant response rating, Deadnettle: 65
[4]; Rate 125 g/ha
  Plant response rating, Deadnettle: 85
[4]; Rate 250 g/ha
  Plant response rating, Deadnettle: 90
[5]; Rate 16 g/ha
  Plant response rating, Blackgrass: 10
[5]; Rate 31 g/ha
  Plant response rating, Blackgrass: 10
[5]; Rate 62 g/ha
  Plant response rating, Blackgrass: 10
[5]; Rate 125 g/ha
  Plant response rating, Blackgrass: 30
[6]; Rate 16 g/ha
  Plant response rating, I. Ryegrass: 5
[6]; Rate 31 g/ha
  Plant response rating, I. Ryegrass: 10
[6]; Rate 62 g/ha
  Plant response rating, I. Ryegrass: 10
[6]; Rate 125 g/ha
  Plant response rating, I. Ryegrass: 10
[7]; Rate 16 g/ha
  Plant response rating, Barley (winter): 5
[7]; Rate 31 g/ha
  Plant response rating, Barley (winter): 10
[7]; Rate 62 g/ha
  Plant response rating, Barley (winter): 10
[7]; Rate 125 g/ha
  Plant response rating, Barley (winter): 10
[8]; Rate 16 g/ha
  Plant response rating, Downy brome: 2
[8]; Rate 31 g/ha
  Plant response rating, Downy brome: 10
[8]; Rate 62 g/ha
  Plant response rating, Downy brome: 10
[8]; Rate 125 g/ha
  Plant response rating, Downy brome: 10
[9]; Rate 16 g/ha
  Plant response rating, Spring Barley: 5
[9]; Rate 31 g/ha
  Plant response rating, Spring Barley: 10
[9]; Rate 62 g/ha
  Plant response rating, Spring Barley: 10
[9]; Rate 125 g/ha
  Plant response rating, Spring Barley: 10
[10]; Rate 16 g/ha
  Plant response rating, Spring Wheat: 5
[10]; Rate 31 g/ha
  Plant response rating, Spring Wheat: 10
[10]; Rate 62 g/ha
  Plant response rating, Spring Wheat: 10
[10]; Rate 125 g/ha
  Plant response rating, Spring Wheat: 20
[11]; Rate 16 g/ha
  Plant response rating, Green foxtail: 5
[11]; Rate 31 g/ha
  Plant response rating, Green foxtail: 10
[11]; Rate 62 g/ha
  Plant response rating, Green foxtail: 20
[11]; Rate 125 g/ha
  Plant response rating, Green foxtail: 20
[12]; Rate 16 g/ha
  Plant response rating, Annual bluegras: 20
[12]; Rate 31 g/ha
  Plant response rating, Annual bluegras: 50
[12]; Rate 62 g/ha
  Plant response rating, Annual bluegras: 50
[13]; Rate 16 g/ha
  Plant response rating, Scentless chamo: 30
[13]; Rate 31 g/ha
  Plant response rating, Scentless chamo: 60
[13]; Rate 62 g/ha
  Plant response rating, Scentless chamo: 60
[13]; Rate 125 g/ha
  Plant response rating, Scentless chamo: 60
[14]; Rate 16 g/ha
  Plant response rating, Wheat (winter): 5
[14]; Rate 31 g/ha
  Plant response rating, Wheat (winter): 10
[14]; Rate 62 g/ha
  Plant response rating, Wheat (winter): 10
[14]; Rate 125 g/ha
  Plant response rating, Wheat (winter): 10
[15]; Rate 16 g/ha
  Plant response rating, Jointed goatgra: 5
[15]; Rate 31 g/ha
  Plant response rating, Jointed goatgra: 10
[15]; Rate 62 g/ha
  Plant response rating, Jointed goatgra: 10
[15]; Rate 125 g/ha
  Plant response rating, Jointed goatgra: 10
[16]; Rate 16 g/ha
  Plant response rating, LS canarygrass: 10
[16]; Rate 31 g/ha
  Plant response rating, LS canarygrass: 10
[16]; Rate 62 g/ha
  Plant response rating, LS canarygrass: 20
[16]; Rate 125 g/ha
  Plant response rating, LS canarygrass: 20
[17]; Rate 16 g/ha
  Plant response rating, Sunflower: 5
[17]; Rate 31 g/ha
  Plant response rating, Sunflower: 10
[17]; Rate 62 g/ha
  Plant response rating, Sunflower: 20
[17]; Rate 125 g/ha
  Plant response rating, Sunflower: 20
[18]; Rate 16 g/ha
  Plant response rating, Windgrass: 5
[18]; Rate 31 g/ha
  Plant response rating, Windgrass: 20
[18]; Rate 125 g/ha
  Plant response rating, Windgrass: 30
Wild oat (Avena fatua) [19]; Rate 16 g/ha
  Plant response rating, Wild oat: 5
Wild oat (Avena fatua) [19]; Rate 31 g/ha
  Plant response rating, Wild oat: 20
Wild oat (Avena fatua) [19]; Rate 62 g/ha
  Plant response rating, Wild oat: 20
Wild oat (Avena fatua) [19]; Rate 125 g/ha
  Plant response rating, Wild oat: 30
Wild oat (Avena fatua) [20]; Rate 31 g/ha
  Plant response rating, Wild oat: 20
Wild oat (Avena fatua) [20]; Rate 62 g/ha
  Plant response rating, Wild oat: 60
Wild oat (Avena fatua) [20]; Rate 125 g/ha
  Plant response rating, Wild oat: 60
Wild oat (Avena fatua) [20]; Rate 250 g/ha
  Plant response rating, Wild oat: 90
[21]; Rate 31 g/ha
  Plant response rating, Sunflower: 10
[21]; Rate 62 g/ha
  Plant response rating, Sunflower: 35
[21]; Rate 125 g/ha
  Plant response rating, Sunflower: 50
[21]; Rate 250 g/ha
  Plant response rating, Sunflower: 30
[22]; Rate 31 g/ha
  Plant response rating, Common poppy: 80
[22]; Rate 62 g/ha
  Plant response rating, Common poppy: 100
[22]; Rate 125 g/ha
  Plant response rating, Common poppy: 100
[22]; Rate 250 g/ha
  Plant response rating, Common poppy: 100
[23]; Rate 31 g/ha
  Plant response rating, Windgrass: 60
[23]; Rate 62 g/ha
  Plant response rating, Windgrass: 100
[23]; Rate 125 g/ha
  Plant response rating, Windgrass: 100
[23]; Rate 250 g/ha
  Plant response rating, Windgrass: 100
